The values below come from patent US20230040909A1 (priority 2019, published 2023).

The term IC50 denotes the concentration at which inhibition is half-maximal.

SMILES strings stand for the structures. ≈ marks a conversion by molar mass, not a printed value.

In the first data set the test system is M. tb H37Rv. The experiment in a line: microbe, parasite or virus in culture. The data set is classed as cell-based, Mycobacterium tuberculosis. Conditions: Mycobacterium tuberculosis, H37RV; read-out: M. tb H37Rv: MIC-MABA.
`Cc1cc(C#N)c2cc(C(=O)NC3CC[Si](C)(C)CC3)[nH]c2c1` [MPL-344, 4-cyano-N-(1,1-dimethylsilinan-4-yl)-6-methyl-1H-indole-2-carboxamide]: the MIC was 0.008 µg/mL (≈ 0.0246 µM).
In the case of `CC(C)Oc1cc(F)cc2[nH]c(C(=O)NC3CC[Si](C)(C)CC3)cc12` [MPL-383, N-(1,1-dimethylsilinan-4-yl)-6-fluoro-4-isopropoxy-1H-indole-2-carboxamide], the MIC amounted to 0.0148 µg/mL (≈ 0.0408 µM).
With `COCCOc1cc(F)cc2[nH]c(C(=O)NC3CC[Si](C)(C)CC3)cc12` [MPL-384, N-(1,1-dimethylsilinan-4-yl)-6-fluoro-4-(2-methoxyethoxy)-1H-indole-2-carboxamide], the MIC worked out at 0.0308 µg/mL (≈ 0.0814 µM).
`Cc1cc(C(F)(F)F)c2cc(C(=O)NC3CC[Si](C)(C)CC3)[nH]c2c1` [MPL-385, N-(1,1-dimethylsilinan-4-yl)-6-methyl-4-(trifluoromethyl)-1H-indole-2-carboxamide]: the MIC is < 0.004 µg/mL.
For `Cc1cc(C(F)(F)F)c2cc(C(=O)NC3CCC[Si](C)(C)CCC3)[nH]c2c1` [MPL-386, N-(1,1-dimethylsilocan-5-yl)-6-methyl-4-(trifluoromethyl)-1H-indole-2-carboxamide], the MIC was < 0.004 µg/mL.

System in a further data set: not listed separately
Nature of the data set: VERO cell cytotoxicity. The data set is classed as cell-based. Conditions: African green monkey, VERO cells. An excerpt:
The procedures described in Falzari 2005 were used to generate the data shown in column 2 of Table 4.
Regarding `Cc1cc(C#N)c2cc(C(=O)NC3CC[Si](C)(C)CC3)[nH]c2c1` [MPL-344, 4-cyano-N-(1,1-dimethylsilinan-4-yl)-6-methyl-1H-indole-2-carboxamide], the IC50 is > 20 µg/mL.
On to `CC(C)Oc1cc(F)cc2[nH]c(C(=O)NC3CC[Si](C)(C)CC3)cc12` [MPL-383, N-(1,1-dimethylsilinan-4-yl)-6-fluoro-4-isopropoxy-1H-indole-2-carboxamide], for which the concentration for half-maximal inhibition (IC50) was > 20 µg/mL.
Take `COCCOc1cc(F)cc2[nH]c(C(=O)NC3CC[Si](C)(C)CC3)cc12` [MPL-384, N-(1,1-dimethylsilinan-4-yl)-6-fluoro-4-(2-methoxyethoxy)-1H-indole-2-carboxamide]: the half-maximal inhibitory concentration (IC50) was > 20 µg/mL.
On the same count and under the same terms, the figure for `Cc1cc(C(F)(F)F)c2cc(C(=O)NC3CC[Si](C)(C)CC3)[nH]c2c1` [MPL-385, N-(1,1-dimethylsilinan-4-yl)-6-methyl-4-(trifluoromethyl)-1H-indole-2-carboxamide] is > 20 µg/mL; for `Cc1cc(C(F)(F)F)c2cc(C(=O)NC3CCC[Si](C)(C)CCC3)[nH]c2c1` [MPL-386, N-(1,1-dimethylsilocan-5-yl)-6-methyl-4-(trifluoromethyl)-1H-indole-2-carboxamide] it is > 20 µg/mL.

A further data set concerns M. tb H37Rv. Nature of the data set: microbe, parasite or virus in culture. It counts as cell-based. Conditions: Mycobacterium tuberculosis, read-out: M. tb H37Rv: MIC-LORA.
Consider `Cc1cc(C#N)c2cc(C(=O)NC3CC[Si](C)(C)CC3)[nH]c2c1` [MPL-344, 4-cyano-N-(1,1-dimethylsilinan-4-yl)-6-methyl-1H-indole-2-carboxamide], for which the MIC was > 20 µg/mL.
On to `CC(C)Oc1cc(F)cc2[nH]c(C(=O)NC3CC[Si](C)(C)CC3)cc12` [MPL-383, N-(1,1-dimethylsilinan-4-yl)-6-fluoro-4-isopropoxy-1H-indole-2-carboxamide], for which the MIC was > 20 µg/mL.
For `COCCOc1cc(F)cc2[nH]c(C(=O)NC3CC[Si](C)(C)CC3)cc12` [MPL-384, N-(1,1-dimethylsilinan-4-yl)-6-fluoro-4-(2-methoxyethoxy)-1H-indole-2-carboxamide], the MIC worked out at 9.36 µg/mL (≈ 24.7 µM).
For `Cc1cc(C(F)(F)F)c2cc(C(=O)NC3CC[Si](C)(C)CC3)[nH]c2c1` [MPL-385, N-(1,1-dimethylsilinan-4-yl)-6-methyl-4-(trifluoromethyl)-1H-indole-2-carboxamide], the MIC was determined as 12.7 µg/mL (≈ 34.5 µM).
The same measure, in the same setting: the figure for `Cc1cc(C(F)(F)F)c2cc(C(=O)NC3CCC[Si](C)(C)CCC3)[nH]c2c1` [MPL-386, N-(1,1-dimethylsilocan-5-yl)-6-methyl-4-(trifluoromethyl)-1H-indole-2-carboxamide] is > 20 µg/mL.

For the next data set, the system named is Mycobacterium abscessus. Nature of the data set: M. ab_ATCC MIC MHII. Conditions: Mycobacteroides abscessus; read-out: M. ab_ATCC: MIC MHII: MIC. It counts as cell-based. The text has this:
The procedure described in Franz 2017 was used to generate the data shown in column 5 of Table 4.
Regarding `Cc1cc(C#N)c2cc(C(=O)NC3CC[Si](C)(C)CC3)[nH]c2c1` [MPL-344, 4-cyano-N-(1,1-dimethylsilinan-4-yl)-6-methyl-1H-indole-2-carboxamide], the MIC was > 64 µg/mL.
Take `CC(C)Oc1cc(F)cc2[nH]c(C(=O)NC3CC[Si](C)(C)CC3)cc12` [MPL-383, N-(1,1-dimethylsilinan-4-yl)-6-fluoro-4-isopropoxy-1H-indole-2-carboxamide]: the MIC was > 64 µg/mL.
For `COCCOc1cc(F)cc2[nH]c(C(=O)NC3CC[Si](C)(C)CC3)cc12` [MPL-384, N-(1,1-dimethylsilinan-4-yl)-6-fluoro-4-(2-methoxyethoxy)-1H-indole-2-carboxamide], the MIC was > 64 µg/mL.
As for `Cc1cc(C(F)(F)F)c2cc(C(=O)NC3CC[Si](C)(C)CC3)[nH]c2c1` [MPL-385, N-(1,1-dimethylsilinan-4-yl)-6-methyl-4-(trifluoromethyl)-1H-indole-2-carboxamide], the MIC is 64 µg/mL (≈ 174 µM).
On to `Cc1cc(C(F)(F)F)c2cc(C(=O)NC3CCC[Si](C)(C)CCC3)[nH]c2c1` [MPL-386, N-(1,1-dimethylsilocan-5-yl)-6-methyl-4-(trifluoromethyl)-1H-indole-2-carboxamide], for which the MIC was > 64 µg/mL.
